ChEMBL document CHEMBL1148405, “Prediction of ligand binding affinity and orientation of xenoestrogens to the estrogen receptor by molecular dynamics simulations and the linear interaction energy method” (J Med Chem, 2004)

Molecular target: Estrogen receptor (Ovis aries, UniProt P49885+Q9TU15)
Experiment: Displacement of [3H]-estradiol (E2) from sheep uterine estrogen receptor

Structure (SMILES)	Kd [M l-1]
CCC1Cc2cc(O)ccc2C2=C1c1ccc(O)cc1CC2CC (stereo not given)	3e-9
Brc1ccccc1-c1ccccc1Br	0.00016
Oc1ccc2c(ccc3c4ccccc4ccc23)c1O	8.8e-7
Brc1ccc(-c2ccc(Br)cc2)cc1	> 0.0003
CC(=O)C1CCC2C3CCC4=CC(O)CCC4(C)C3CCC12C (stereo not given)	> 0.0003
Oc1ccc2ccc3c4ccccc4ccc3c2c1	4e-6
Oc1ccc2c(cc3ccc4cccc5ccc2c3c45)c1O	0.000014
Oc1ccc2ccc3c4ccccc4cc4ccc1c2c43	1.1e-6
Oc1ccc(C2COc3cc(O)c(O)cc3C2)cc1 (stereo not given)	0.000011
O=c1c(-c2ccc(O)cc2)coc2cc(O)ccc12 [DAIDZEIN]	5.9e-6
